From patent US20240261417A1, “SOS1 DEGRADING AGENT AND PREPARATION METHOD THEREFOR AND APPLICATION THEREOF” (SHANGHAI LEADINGTAC PHARMACEUTICAL CO. LTD., priority 2021, published 2024)

What was measured:
Assay type in all cases: cell-based
SOS1 protein [1] = target: T1, SOS1 protein (Homo sapiens, UniProt Q07889); assay: SOS1 degradation assay (Western blot), SW-620 cells; design: host or cells: SW-620 (human cancer cell lines); details: 24 h; for DC50: read-out: SW620 (G12V) DC50; for Dmax: read-out: SW620 (G12V) Dmax
T1 sequence (Q07889 1-1333): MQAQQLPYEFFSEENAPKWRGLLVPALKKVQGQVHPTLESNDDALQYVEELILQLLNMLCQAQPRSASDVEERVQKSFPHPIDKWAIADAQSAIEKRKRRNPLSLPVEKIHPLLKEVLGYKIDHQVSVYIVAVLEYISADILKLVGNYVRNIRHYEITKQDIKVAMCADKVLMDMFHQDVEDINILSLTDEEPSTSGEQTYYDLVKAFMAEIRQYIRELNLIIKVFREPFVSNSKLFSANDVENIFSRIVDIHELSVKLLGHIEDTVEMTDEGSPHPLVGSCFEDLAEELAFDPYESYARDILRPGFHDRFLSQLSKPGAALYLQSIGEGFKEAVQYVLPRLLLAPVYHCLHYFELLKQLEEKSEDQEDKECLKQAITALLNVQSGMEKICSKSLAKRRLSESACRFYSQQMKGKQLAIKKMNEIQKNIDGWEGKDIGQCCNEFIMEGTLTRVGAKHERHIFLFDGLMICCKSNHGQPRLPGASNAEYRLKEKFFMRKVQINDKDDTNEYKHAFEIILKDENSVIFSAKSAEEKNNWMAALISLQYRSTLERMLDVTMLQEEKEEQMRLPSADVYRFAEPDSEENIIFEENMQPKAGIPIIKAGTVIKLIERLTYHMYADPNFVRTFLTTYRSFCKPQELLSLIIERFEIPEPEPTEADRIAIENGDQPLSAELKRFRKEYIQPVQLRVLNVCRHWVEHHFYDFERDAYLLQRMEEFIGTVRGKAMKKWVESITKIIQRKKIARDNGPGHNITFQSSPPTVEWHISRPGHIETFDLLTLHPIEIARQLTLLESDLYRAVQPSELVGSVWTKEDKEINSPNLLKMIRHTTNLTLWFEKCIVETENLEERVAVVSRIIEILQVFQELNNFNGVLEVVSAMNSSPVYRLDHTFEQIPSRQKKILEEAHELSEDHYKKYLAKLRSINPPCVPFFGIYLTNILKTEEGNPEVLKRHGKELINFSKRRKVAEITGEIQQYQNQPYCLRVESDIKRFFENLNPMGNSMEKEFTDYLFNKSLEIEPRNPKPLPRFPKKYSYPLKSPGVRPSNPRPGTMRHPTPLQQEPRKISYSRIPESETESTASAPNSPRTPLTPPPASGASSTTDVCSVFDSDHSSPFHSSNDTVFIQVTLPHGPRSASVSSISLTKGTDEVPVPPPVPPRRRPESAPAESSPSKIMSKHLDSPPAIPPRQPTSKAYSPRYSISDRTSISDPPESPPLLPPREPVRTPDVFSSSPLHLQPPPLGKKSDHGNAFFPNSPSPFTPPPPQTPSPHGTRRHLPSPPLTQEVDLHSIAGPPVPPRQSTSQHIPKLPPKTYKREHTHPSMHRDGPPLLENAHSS
Procedure: (§1) The specific procedures were as follows:
(§2) 0.95 mL of cells were seeded into each well of a 24-well cell culture plate to achieve a cell density of 5×10^5 cells/well; the cell plate was incubated in an incubator at 37° C. with 5% CO2 overnight. Then 50 μL of the compound solution after dilution was added to each of the wells with the corresponding cells, so that the final concentration of the compound was in a range of 0.03-3000 nM. […] After dosing, the cell plate was incubated in an incubator at 37° C. with 5% CO2 for 24 h. […] After the plate was left to stand on ice for 30 min, the protein lysate in each well was transferred to a 1.5 mL centrifuge tube and centrifuged at 15000 g for 20 min at 4° C. The cell lysate supernatant after centrifugation was cryopreserved at −80° C. for testing and was used for determining the degradation level of the SOS1 protein by a WB method. The concentration of total protein in the cell lysate supernatant was determined using the BCA Protein Quantification Kit (Tiangen, PA115-02).
(§3) The concentration of total protein in the cell lysate was determined by BCA. The total protein was adjusted to 0.5 μg/μL with PBS and 5× SDS-PAGE protein loading buffer (Beyotime, P0015L), incubated in a water bath at 100° C. for 15 min, incubated in an ice bath on ice for 5 min, centrifuged at 14000 g for 1 min at 4° C., and mixed well as a loading sample for WB. Protein electrophoresis was performed on a precast gel (KeyGEN, KGMGO10W15) with a loading volume of 10 μL (total protein: 5 μg) using a Tris-MOPS-SDS running solution (Adamas, P1598253) at a constant voltage of 120 V for 55 min. After the electrophoresis, the protein on the gel strip was transferred to a PVDF membrane at a constant current of 250 mA for 65 min. After the membrane transfer, the membrane was incubated in 1× QuickBlock blocking buffer (Beyotime, P0235) for 30 min at room temperature. […] The protein map was subjected to gray value analysis by the chemiluminescence imaging system from Clinx. […] Then the degradation rate was calculated by comparing the gray correction value with the gray correction value of the control group. Then nonlinear curve fitting was performed by GraphPad Prism 8 in the logarithmic concentration-inhibition rate to obtain the DC50 and Dmax values of the compounds.

SOS1 protein [2] = target: T1, SOS1 protein; assay: SOS1 degradation assay (Western blot), NCI-H358 cells; design: The degradation of SOS1 by the compounds was investigated on KRAS G12C mutant human non-small cell lung cancer cells NCI-H358; host or cells: NCI-H358 (human cancer cell lines); details: SOS1 degradation, NCI-H358 cells, 24 h, Western blot; for DC50: read-out: NCI-H358 (G12C) DC50; for Dmax: read-out: NCI-H358 (G12C) Dmax
How it was run: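 Cells at 5×10^5 per well were treated for 24 h at 37 °C with compound at 0.03–3000 nM final. SOS1 in lysates was measured by Western blot with chemiluminescent densitometry and normalised to the control group. DC50 and Dmax came from nonlinear fits against log concentration.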

SOS1 protein [3] = target: T1, SOS1 protein; assay: SOS1 degradation assay (Western blot), A-427 cells; design: host or cells: A-427 (human cancer cell lines); details: 24 h; for DC50: read-out: A427 (G12D) DC50; for Dmax: read-out: A427 (G12D) Dmax
Procedure: as §1, §2, §3

Structure (SMILES) | DC50 (SOS1 protein [1]) [nM] | Dmax (SOS1 protein [1]) [%] | DC50 (SOS1 protein [2]) [nM] | Dmax (SOS1 protein [2]) [%] | DC50 (SOS1 protein [3]) [nM] | Dmax (SOS1 protein [3]) [%]
CNCc1ccccc1-c1csc([C@@H](C)Nc2nc(C)nc3cc(OC)c([C@H]4CC[C@H](C(=O)N5CCN(CC6CCC7(CC6)CCN(C(=O)c6ccc(OC)c(N8CCC(=O)NC8=O)c6)CC7)CC5)CC4)cc23)c1 [Example 73, 1-(2-methoxy-5-(9-((4-((1R,4R)-4-(7-methoxy-2-methyl-4-(((R)-1-(4-(2-((methylamino)methyl)phenyl)thien-2-yl)ethyl)amino)quinazolin-6-yl)cyclohexane-1-carbonyl)piperazin-1-yl)methyl)-3-azaspiro[5.5]undecane-3-carbonyl)phenyl)dihydropyrimidine-2,4(1H,3H)-dione] | < 50 | 80 to 100 | < 50 | 80 to 100 | < 50 | 80 to 100
COc1cc2nc(C)nc(N[C@H](C)c3cc(N)cc(C(F)(F)F)c3)c2cc1[C@H]1CC[C@H](C(=O)N2CCN(CC3CCC4(CC3)CCN(C(=O)c3ccc(Cl)c(N5CCC(=O)NC5=O)c3)CC4)CC2)CC1 [Example 2, 1-(5-(9-((4-((1R,4R)-4-(4-(((R)-1-(3-amino-5-(trifluoromethyl)phenyl)ethyl)amino)-7-methoxy-2-methylquinazolin-6-yl)cyclohexane-1-carbonyl)piperazin-1-yl)methyl)-3-azaspiro[5.5]undecane-3-carbonyl)-2-chlorophenyl)dihydropyrimidine-2,4(1H,3H)-dione] | < 50 | 80 to 100 | < 50 | 80 to 100 | < 50 | 80 to 100
COc1cc2nc(C)nc(N[C@H](C)c3cc(N)cc(C(F)(F)F)c3)c2cc1[C@H]1CC[C@H](C(=O)N2CCN(CCC3CCC4(CC3)CCN(C(=O)c3ccc(Cl)c(N5CCC(=O)NC5=O)c3)CC4)CC2)CC1 [Example 1, 1-(5-(9-(2-(4-((1R,4R)-4-(4-(((R)-1-(3-amino-5-(trifluoromethyl)phenyl)ethyl)amino)-7-methoxy-2-methylquinazolin-6-yl)cyclohexane-1-carbonyl)piperazin-1-yl)ethyl)-3-azaspiro[5.5]undecane-3-carbonyl)-2-chlorophenyl)dihydropyrimidine-2,4(1H,3H)-dione] | < 50 | 80 to 100 | < 50 | 80 to 100 | < 50 | 80 to 100

The remaining lines, values ahead:

DC50 (SOS1 protein [1]) [nM] | Dmax (SOS1 protein [1]) [%] | DC50 (SOS1 protein [2]) [nM] | Dmax (SOS1 protein [2]) [%] | DC50 (SOS1 protein [3]) [nM] | Dmax (SOS1 protein [3]) [%] | Structure (SMILES)
< 50 | 80 to 100 | 100 to 500 | 50 to 80 | < 50 | 50 to 80 | COc1cc2nc(C)nc(N[C@H](C)c3cc(N)cc(C(F)(F)F)c3)c2cc1[C@H]1CC[C@H](C(=O)N2CCC(CCOCC3CCN(C(=O)c4ccc(Cl)c(N5CCC(=O)NC5=O)c4)CC3)CC2)CC1 [Example 19, 1-(5-(4-((2-(1-((1R,4R)-4-(4-(((R)-1-(3-amino-5-(trifluoromethyl)phenyl)ethyl)amino)-7-methoxy-2-methylquinazolin-6-yl)cyclohexane-1-carbonyl)piperidin-4-yl)ethoxy)methyl)piperidine-1-carbonyl)-2-chlorophenyl)dihydropyrimidine-2,4(1H,3H)-dione]
< 50 | 80 to 100 | < 50 | 80 to 100 | < 50 | 80 to 100 | COc1cc2nc(C)nc(N[C@H](C)c3cc(N)cc(C(F)(F)F)c3)c2cc1[C@H]1CC[C@H](C(=O)N2CCN(CCOCC3CCN(C(=O)c4ccc(Cl)c(N5CCC(=O)NC5=O)c4)CC3)CC2)CC1 [Example 33, 1-(5-(4-((2-(4-((1R,4R)-4-(4-(((R)-1-(3-amino-5-(trifluoromethyl)phenyl)ethyl)amino)-7-methoxy-2-methylquinazolin-6-yl)cyclohexane-1-carbonyl)piperazin-1-yl)ethoxy)methyl)piperidine-1-carbonyl)-2-chlorophenyl)dihydropyrimidine-2,4(1H,3H)-dione]
< 50 | 80 to 100 | < 50 | 50 to 80 | < 50 | 80 to 100 | COc1cc2nc(C)nc(N[C@H](C)c3cccc4c3CCS4(=O)=O)c2cc1[C@H]1CC[C@H](C(=O)N2CCN(CC3CCC4(CC3)CCN(C(=O)c3ccc(Cl)c(N5CCC(=O)NC5=O)c3)CC4)CC2)CC1 [Example 10, 1-(2-chloro-5-(9-((4-((1R,4R)-4-(4-(((R)-1-(1,1-dioxo-2,3-dihydrobenzo[b]thiophen-4-yl)ethyl)amino)-7-methoxy-2-methylquinazolin-6-yl)cyclohexane-1-carbonyl)piperazin-1-yl)methyl)-3-azaspiro[5.5]undecane-3-carbonyl)phenyl)dihydropyrimidine-2,4(1H,3H)-dione]
